Laboratory results from EP4722236A1, “INSULIN DERIVATIVE AND USE THEREOF” (The United Bio-Technology (Hengqin) Co., Ltd., priority 2023, dated 2024).

What was measured:
[1] = target: T1, human serum albumin (HSA) (Homo sapiens, UniProt P02768); conditions: hsa on cm5 chip
Method: (§1) According to the instructions for the Amine Coupling Kit, Type 2 (Cytiva), immobilize human serum albumin onto the surface of the CM5 sensor chip of the S Series. […] Human serum albumin (HSA) was diluted to 20 µg/mL with acetic acid solution of pH 4.5. The EDC/NHS mixture solution, HSA protein solution, and 1M ethanolamine-hydrochloric acid solution were added to the detection plate according to the program settings. b) The detection plate was placed into the Biacore 8K sample compartment. The EDC/NHS mixture solution, HSA protein solution, and 1M ethanolamine-hydrochloric acid solution were sequentially injected into the channels on the surface of the CM5 chip by the Biacore 8K according to the program. Through this process, the chip was activated, the ligand was coupled, and the chip was deactivated. Each channel consists of two circulation pools, with circulation pool 1 serving as the reference channel undergoing only surface activation and deactivation without injection of HSA protein solution.
(§2) The detection plate was placed into the sample compartment of the Biacore 8K, with the running buffer serving as the 0-concentration reference sample. c) Run the detection program, with samples sequentially injected into each channel of the chip according to the program.
(§3) Finally, the data was analyzed using BiaCore Insight Evaluation Software, employing a 1:1 binding model for analysis.

normal SD rats = assay: Pharmacodynamic study in normal SD rats (blood glucose, single subcutaneous dose); type: in vivo; conditions: for Blood Glucose Levels: Table 4.2, SD rats, 650 nmol/kg s.c. single dose, Mean ± SEM, n = 8
Method: Normal male SD rats aged 8-9 weeks, body weight 280-320 g, were selected. Animals were housed in animal housing facilities with strictly controlled environmental conditions, where the temperature is maintained between 20°Cand 24°C and humidity was kept between 30 and 70%. During the experiment, animals were housed individually with free access to food and water.
After one week of adaptive feeding, the experiment commenced. Rats were assigned to Solvent group 1, Solvent group 2, and the treatment group based on body weight and blood glucose levels before administration, with eight rats per group. The administered doses were all 650 nmol/kg.
The above drugs were dissolved in the solvent to a concentration of 216.7 nmol/mL. The dosing volume is 3 mL/kg. For a single subcutaneous administration, with the administration time set as 0 hours, blood glucose levels were measured at 0 h before dosing, and at 4 h, 8 h, 24 h, 28 h, 48 h, 72 h, 96 h, and 120 h after dosing (without dietary restrictions).

[2] = target: T1, human serum albumin (HSA); assay: In vitro binding to HSA via SPR (Biacore 8K)
Method: as §1, §2, §3

[3] = HSA on CM5 chip, 1:1 binding model

T1 sequence (P02768 25-609): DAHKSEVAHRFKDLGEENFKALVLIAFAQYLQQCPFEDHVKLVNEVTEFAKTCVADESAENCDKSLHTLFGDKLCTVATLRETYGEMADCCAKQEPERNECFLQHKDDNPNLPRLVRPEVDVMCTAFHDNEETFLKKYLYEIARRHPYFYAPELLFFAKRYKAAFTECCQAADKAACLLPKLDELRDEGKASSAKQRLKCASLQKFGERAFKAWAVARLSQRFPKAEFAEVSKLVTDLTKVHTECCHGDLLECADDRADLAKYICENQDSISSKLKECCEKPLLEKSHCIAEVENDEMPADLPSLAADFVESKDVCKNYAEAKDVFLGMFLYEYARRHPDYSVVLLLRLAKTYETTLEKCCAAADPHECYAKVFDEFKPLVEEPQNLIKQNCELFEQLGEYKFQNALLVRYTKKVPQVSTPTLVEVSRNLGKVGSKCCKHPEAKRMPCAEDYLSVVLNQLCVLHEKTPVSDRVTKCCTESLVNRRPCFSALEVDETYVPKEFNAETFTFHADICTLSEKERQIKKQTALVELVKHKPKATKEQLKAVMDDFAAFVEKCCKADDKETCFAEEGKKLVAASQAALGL

Kd [1]: 275 µM | ka [2, 3]: 612 M⁻¹ s⁻¹ | kd [2, 3]: 0.169 s⁻¹
Substance: A14E, B16H, B25H, B29K (N^ε-[1-(19-Carboxyl-nonadecyloxy)-β-D-glucuronyl]-γGlu-[2-(2-{2-[2-(2-Aminoethoxy) ethoxy]acetylamino}ethoxy)ethoxy]acetyl), desB27, desB30 human insulin [Compound 4]
Blood Glucose Levels (normal SD rats; 0 h (before dosing)): 7.3 ± 0.1 | Blood Glucose Levels (normal SD rats; 4 h): 3.6±0.3 | Blood Glucose Levels (normal SD rats; 24 h): 4.2±0.4 | Blood Glucose Levels (normal SD rats; 48 h): 4.4±0.5 | Blood Glucose Levels (normal SD rats; 72 h): 6.6±0.5 | Blood Glucose Levels (normal SD rats; 96 h): 7.8±0.1 | Blood Glucose Levels (normal SD rats; 120 h): 7.5 ± 0.1 | hypoglycemic effect (normal SD rats; comparison in words with Icodec, SD rats, s.c.): superior to Icodec | binding affinity to HSA ([2]; comparison in words with Icodec, SPR): superior binding affinity to HSA compared to Icodec
